Measurements from ChEMBL document CHEMBL1148631, “Synthesis of cyclopentenyl carbocyclic nucleosides as potential antiviral agents against orthopoxviruses and SARS” (J Med Chem, 2006).

How the values were obtained:
Vaccinia virus [1] = experiment: Selective index against Vaccinia virus; format: functional, Orthopoxvirus vaccinia
West Nile virus [2] = experiment: Antiviral activity against West Nile virus; format: functional, organism-based
[3] = system: Venezuelan equine encephalitis virus; experiment: Cytotoxicity against Venezuelan equine encephalitis virus; format: organism-based
West Nile virus [4] = experiment: Cytotoxicity against West Nile virus; format: organism-based
[5] = system: Venezuelan equine encephalitis virus; experiment: Selective index against Venezuelan equine encephalitis virus; format: functional
SARS-CoV [6] = experiment: Antiviral activity against SARS coronavirus; format: functional, organism-based; details: Severe acute respiratory syndrome-related coronavirus
SARS-CoV [7] = experiment: Selective index against SARS coronavirus; format: functional, Severe acute respiratory syndrome-related coronavirus
Cowpox virus [8] = experiment: Selective index against Cowpox virus; format: functional
Cowpox virus [9] = experiment: Antiviral activity against Cowpox virus; format: functional, organism-based
Yellow fever virus [10] = experiment: Selective index against Yellow fever virus; format: functional
[11] = system: Venezuelan equine encephalitis virus; experiment: Antiviral activity against Venezuelan equine encephalitis virus; format: functional, organism-based
Vaccinia virus [12] = experiment: Antiviral activity against Vaccinia virus; format: functional, organism-based; details: Orthopoxvirus vaccinia
SARS-CoV [13] = experiment: Cytotoxicity against SARS coronavirus; format: organism-based; details: Severe acute respiratory syndrome-related coronavirus
Yellow fever virus [14] = experiment: Cytotoxicity against Yellow fever virus; format: organism-based
[15] = Cytotoxicity against Vaccinia virus; format: organism-based; details: Orthopoxvirus vaccinia
[16] = Cytotoxicity against Cowpox virus; format: organism-based
Yellow fever virus [17] = experiment: Antiviral activity against Yellow fever virus; format: functional, organism-based

With `NC(=O)c1cn([C@@H]2C=C(CO)[C@@H](O)[C@H]2O)nn1` as the compound, how does the Selectivity index (Vaccinia virus [1]) read?
Its Selectivity index is >750.

What about the EC50 (West Nile virus [2]) of the same compound?
Its EC50 is > 100 µM.

And the IC50 [3]?
The IC50 was > 100 µM.

And the IC50 (West Nile virus [4])?
The IC50 was > 100 µM.

And the Selectivity index [5]?
Its Selectivity index is 0.

What about the EC50 (SARS-CoV [6]) of the same compound?
Its EC50 is 47 µM.

And the Selectivity index (SARS-CoV [7])?
Its Selectivity index is >2.1.

And the Selectivity index (Cowpox virus [8])?
The Selectivity index was >7.7.

What about the EC50 (Cowpox virus [9]) of the same compound?
Its EC50 is 39 µM.

And the Selectivity index (Yellow fever virus [10])?
The Selectivity index was 0.

And the EC50 [11]?
The EC50 was > 100 µM.

What about the EC50 (Vaccinia virus [12]) of the same compound?
The EC50 was 0.4 µM.

And the IC50 (SARS-CoV [13])?
Its IC50 is > 100 µM.

And the IC50 (Yellow fever virus [14])?
The IC50 was > 100 µM.

And the IC50 [15]?
The IC50 was > 300 µM.

What about the IC50 [16] of the same compound?
The IC50 was > 300 µM.

And the EC50 (Yellow fever virus [17])?
The EC50 was > 100 µM.

What does the source list for `NC(=O)c1ncn([C@@H]2C=C(CO)[C@@H](O)[C@H]2O)n1`?
Selectivity index (Vaccinia virus [1]): 0; EC50 (West Nile virus [2]): > 100 µM; IC50 [3]: > 100 µM; IC50 (West Nile virus [4]): > 100 µM; Selectivity index [5]: 0; EC50 (SARS-CoV [6]): 21 µM; Selectivity index (SARS-CoV [7]): >4.8; Selectivity index (Cowpox virus [8]): 0; EC50 (Cowpox virus [9]): > 300 µM; Selectivity index (Yellow fever virus [10]): 0; EC50 [11]: > 100 µM; EC50 (Vaccinia virus [12]): > 300 µM; IC50 (SARS-CoV [13]): > 100 µM; IC50 (Yellow fever virus [14]): > 100 µM; IC50 [15]: > 300 µM; IC50 [16]: > 300 µM; EC50 (Yellow fever virus [17]): > 100 µM

With `NC(=O)c1cn([C@@H]2C=C(CO)[C@@H](O)[C@H]2O)cn1` as the compound, how does the Selectivity index (Vaccinia virus [1]) read?
The Selectivity index was 0.

What about the EC50 (West Nile virus [2]) of the same compound?
The EC50 was > 100 µM.

And the IC50 [3]?
Its IC50 is > 100 µM.

What about the IC50 (West Nile virus [4]) of the same compound?
The IC50 was > 100 µM.

What about the Selectivity index [5] of the same compound?
Its Selectivity index is 0.

And the EC50 (SARS-CoV [6])?
Its EC50 is > 100 µM.

What about the Selectivity index (SARS-CoV [7]) of the same compound?
Its Selectivity index is 0.

What about the Selectivity index (Cowpox virus [8]) of the same compound?
The Selectivity index was 0.

What about the EC50 (Cowpox virus [9]) of the same compound?
Its EC50 is > 300 µM.

What about the Selectivity index (Yellow fever virus [10]) of the same compound?
The Selectivity index was 0.

What about the EC50 [11] of the same compound?
The EC50 was > 100 µM.

And the EC50 (Vaccinia virus [12])?
The EC50 was > 300 µM.

What about the IC50 (SARS-CoV [13]) of the same compound?
The IC50 was > 100 µM.

What about the IC50 (Yellow fever virus [14]) of the same compound?
Its IC50 is > 100 µM.

What about the IC50 [15] of the same compound?
Its IC50 is > 300 µM.

What about the IC50 [16] of the same compound?
The IC50 was > 300 µM.

And the EC50 (Yellow fever virus [17])?
The EC50 was > 100 µM.

For `Nc1ccn(C[C@@H](CO)OCP(=O)(O)O)c(=O)n1` [CIDOFOVIR], which EC50 (Vaccinia virus [12]) is on record?
Its EC50 is 6 µM.

And the IC50 [15]?
Its IC50 is < 317 µM.

And the IC50 [16]?
Its IC50 is > 317 µM.
